One data set has as its system albumin. Further details: method as in PMID 17363345, PMID 7945407. The following applies: cited from earlier work.
Data set [1] is described as follows: Mass balance: excretion of radioactivity in urine and feces after a single oral dose of [^14C]BS1801. The data set is classed as in vivo, Sprague–Dawley (SD, Rattus norvegicus) rats. On the procedure:
(§1) BS1801 and [^14C]BS1801 were prepared in 0.5% sodium carboxymethyl cellulose solution at a target concentration of 10 mg/mL (10 μCi/mL). The radioactivity of [^14C]BS1801 was measured using a liquid scintillation counter (LSC) (Hidex, Turku, Finland) before and after administration, and a single dose of 10 mL/kg was administered orally.
Three male and three female SD rats were housed individually in metabolic cages. Urine samples were collected from each rat at predose and 0–8, 8–24, 24–48, 48–72, 72–96, 96–120, 120–144, and 144–168 h postdose. When each urine sample was collected, the metabolic cage was flushed with a small amount of water for 0–72 h and methanol/water (50:50, v:v) for 72–168 h, and the flushing solution was added to the urine sample for the corresponding period. Fecal samples were also collected at predose and 0–24, 24–48, 48–72, 72–96, 96–120, 120–144, and 144–168 h postdose. Urine and fecal samples were weighed and recorded during each collection period. All samples were stored at −20 °C for testing.
(§2) Samples of urine (100 μL), bile (30 μL), and plasma (100 μL from the tissue distribution study) were weighed and added to 15 mL scintillation solution. Among them, urine and bile samples were duplicated, and plasma samples were in singlicate. The radioactivity was measured directly via LSC.
(§3) Approximately three times the weight of methanol/water (50:50, v:v) was added to each fecal sample and homogenized with a homogenizer (SKGZ, Shanghai Biheng, Shanghai, China). Approximately 0.2~0.3 g of the fecal homogenate was weighed in a combustion boat, and dried overnight. Blood samples (100 μL) and tissue samples (approximately 0.1 g) were weighed into burning boats. After the samples were completely dried, they were combusted using a Biological Sample Oxidizer (OTCS-11/1, Shanghai Yixing, Shanghai, China). The ^14CO2 generated was captured with 15 mL alkaline scintillation solution; then, the radioactivity was measured using LSC.

Data set [2] can be described thus: Biliary excretion of radioactivity in bile duct cannulated (BDC) rats. The data set is classed as in vivo, Sprague–Dawley (SD, Rattus norvegicus) rats. The following applies: BDC SD rats, single intragastric 100 mg/kg, within 72 h. The method, then:
as §1
Bile duct cannulation (BDC) was performed in 3 male and 3 female SD rats before drug administration. After the operation, the wounds were wiped with iodophor for 2 days, and painkillers were administered appropriately. The state of the rats was observed daily, and the drug was administered only when no abnormality was observed within 2 days. Bile was collected before and 0–4, 4–8, 8–24, 24–48, and 48–72 h after dosing. The weights of the bile samples were recorded, and the samples were stored at −20 °C until testing.
as §2

Data set [3] is described as follows: Tissue distribution of radioactivity after a single oral dose of [^14C]BS1801. The data set is classed as in vivo, Long–Evans (LE, Rattus norvegicus) rats. The conditions noted are these: total radioactivity. The method, then: as §1
Twenty-four LE rats (12 of each sex) were used for tissue distribution studies. Three male and three female rats were sacrificed through abdominal aortic bleeding at 2, 10, 48, and 96 h after administration. Approximately 1/5 of the blood was stored frozen at −20 °C, and the remaining blood was centrifuged (3500× g, 5 min, 4 °C) to obtain plasma. The brain, heart, lung, liver, stomach wall, spleen, kidney, muscle, pigmented fat, ovary, womb, testis, bladder wall, pancreas, small intestine wall, large intestine wall, eye, pigmented skin, thymus, spinal cord, and marrow were also collected. The tissues were washed with saline, dried, and stored at −20 °C until testing.
as §2, §3

The nature of data set [4]: Metabolite radio-profiling and identification in pooled plasma, urine, feces and bile (UHPLC-β-RAM/UV/QE MS). The class given is in vivo, Sprague–Dawley (SD, Rattus norvegicus) rats. The method, then:
Three SD rats of each sex were used to obtain plasma samples. […] All samples were stored at −20 °C for analysis.
Then, 3 mL of methanol/water (50:50, v:v) was slowly added to the pooled plasma (1 mL), followed by vortexing for 1 min and sonication for 10 min twice. Then, the upper extract and the lower precipitate were separated by centrifugation (5000 rpm, 10 min). The supernatant was transferred to another new centrifuge tube. Then, 1 mL of water was added to the precipitate, vortexed for 1 min, and sonicated for 10 min. Then, 2 mL of methanol/acetonitrile (50:50, v:v) was added to the mixture, two vortexes were performed for 1 min, and the mixture was ultrasonicated for 10 min, followed by centrifugation (5000 rpm, 10 min). The two-times supernatant extracts were combined and dried under a nitrogen stream and finally redissolved with acetonitrile/water (20:80, v:v). The recoveries of extraction and reconstitution processes were measured via LSC.
The pooled urine was vortexed and centrifuged (5000 rpm, 10 min). After centrifugation, the supernatant was dried under a nitrogen stream and then redissolved in acetonitrile/water (20:80, v:v).
The pooled fecal homogenate (1 g) was extracted by using the same method as for the plasma. The supernatant was then evaporated under a nitrogen stream and redissolved in 300 μL acetonitrile/water (20:80, v:v).
An ACQUITY UPLC BEH Pheny column (100 × 2.1 mm, 1.7 μm) with a Phenomenex KrudKatcher Ultra HPLC In-Line Filter guard column (2 µm, Depth Filter × 0.004 in ID) was used to perform metabolite radio-profiling and characterization on the Vanquish UHPLC system, which was combined with a QExactive Plus mass spectrometer (Thermo, Waltham, MA, USA) containing an electrospray ionization (ESI) source. The column temperature was 40 °C, and the flow rate was 0.45 mL/min. The mobile phases contained 5 mM ammonium acetate with 0.1% formic acid in water (A) and acetonitrile (B). […] The mass spectrometer was operated in positive (+ESI) mode with a m/z 100–1500 Da scanning range. The optimized MS parameters were as follows: sheath gas, 35 L/min; auxiliary gas, 10 L/min; capillary temperature, 320 °C; and spray voltage, 3.8 kV. Data acquisition was performed using Xcalibur 4.1 software (Thermo, Waltham, MA, USA), and data analysis was accomplished using Compound Discoverer software 3.3 SP2 (Thermo, Waltham, MA, USA).
The extracted plasma, urine, feces, and bile samples were separated via UHPLC and detected using an online/offline radioactivity detector to obtain the corresponding radioactive metabolite profiles. Due to low radioactivity of plasma, the UHPLC eluent was collected using a UHPLC fraction collector (Thermo, Waltham, MA, USA) over time (10 s/well) on Deepwell LumaPlateTM 96-well plates. After evaporation via a vacuum centrifuge concentrator, the radioactivity was determined with an offline Sense Beta detector (1 min/well, Hidex, Turku, Finland). For the urine, feces, and bile samples, the UHPLC eluent was analyzed using an online radioactivity detector β-RAM. Radioactive metabolite profiling was integrated to obtain the radio-chromatogram with Laura 6.0.5.101 software (Lablogic, Sheffield, UK). The percentage of each metabolite in urine, feces, and bile (%dose) and the ratio of metabolites in the plasma (% area under the curve, %AUC) were calculated.

The test system of a further data set is human serum albumin. Further details: method as in PMID 35149420. The conditions noted are these: covalent binding, unstable; cited from earlier work.
[5] abbreviates: SD rats, single oral 100 mg/kg, 0 to 168 h.
Where [6] appears, read: 0–96 h pooled female SD rat urine.
Where [7] appears, read: AUC0–72h pooled female SD rat plasma.
Where [8] appears, read: AUC0–72h pooled male SD rat plasma.

Data on five molecules can be found in publication PMC10745422, “Absorption, Distribution, Metabolism, and Excretion of [^14C]BS1801, a Selenium-Containing Drug Candidate, in Rats” (Molecules, 2023).

Turning to `O=c1c2ccccc2[se]n1CCn1[se]c2ccccc2c1=O` [BBSKE, 1,2-[bis(1,2-benzisoselenazolone-3 (2H)-ketone)]-ethane], the “binding rates with albumin” value with albumin is “high”.
Turning to `O=c1c2ccccc2[se]n1CCCCn1[se]c2ccccc2c1=O` [BS1801], the “absorption in rats (inferred from urine and bile recovery)” value in data set [1] (SD rats, single oral 100 mg/kg) is “not well absorbed”. In addition, the “radioactive recovery in either urine or bile” value in data set [1] (SD rats, single oral 100 mg/kg) is listed as “less than 1 % of the dose”. Further, the “mean radioactive recovery in urine and feces” value in data set [1] (SD rats, single oral 100 mg/kg (100 μCi/kg), 0 to 168 h) came to 93.39%; in data set [1] (SD rats, single oral 100 mg/kg, within 0–48 h), 91.57%. Moreover, the “cumulative excretion of radioactive substances in feces” value in data set [1] (setting [5]) is 92.77 % of the dose; in data set [1] (female SD rats) it was 93.22 % of the dose; in data set [1] (male SD rats), 92.32 % of the dose. In data set [1] (setting [5]), the “cumulative excretion of radioactive substances in urine” value is on record as 0.62 % of the dose. For the same molecule, the “recovery of radioactivity in bile” value in data set [2] is listed as 0.58%. In addition, in data set [3] (brain, LE rats), the “ratio of AUC0–96h of brain to that of plasma, rank among analyzed tissues” value was “the lowest”. The “ratio of tissue AUC0–96h to plasma AUC0–96h” value in data set [3] (eyes, male LE rats) stood at 5.35; in data set [3] (large intestine, female LE rats), 16.82; in data set [3] (large intestine, male LE rats), 7.48; in data set [3] (liver, female LE rats), 6.59; in data set [3] (liver, male LE rats) it was 11.80; in data set [3] (stomach, male LE rats), 10.60. Moreover, the “average ratio of blood AUC0–96h to plasma AUC0–96h” value in data set [3] (female LE rats) came out at 0.45; in data set [3] (male LE rats), 0.73. The “ratios of other tissues AUC0–96h to plasma AUC0–96h” value in data set [3] (other tissues, all rats) is reported as “lower than 5.00”. The amount in urine entry in data set [4] (setting [6]) and in data set [4] (0–96 h pooled male SD rat urine) was “not detected” each time. The “share of total plasma radioactivity” value in data set [4] (setting [7]) is reported as “undetected”; in data set [4] (setting [8]), “not detected”. Moreover, the “detection of parent drug in bile” value in data set [4] (SD rat bile) was “not detected”. Besides, the “unchanged drug in rat feces” value in data set [4] (SD rat feces, male and female) is given as “more than 75.00 % of the dose”. Further, the “recovery of radioactivity in the supernatant after protein precipitation of pooled plasma” value in data set [4] (female SD rats) is reported as 91.23%; in data set [4] (male SD rats) it was 105.85%. For the same molecule, the amount in feces in data set [4] (pooled female SD rat feces (0–48 h)) is listed as 81.89 % of the dose; in data set [4] (pooled male SD rat feces (0–48 h)) it was 76.97 % of the dose. Further, in the data set on human serum albumin, the “binding to human serum albumin” value is “rapidly and thoroughly”.
As for `C[Se]c1ccccc1C(=O)NCCCCNC(=O)c1ccccc1[Se]C` [M2], the “share of total plasma radioactivity” value in data set [4] (setting [7]) is listed as 81.33 % of the total plasma radioactivity; in data set [4] (setting [8]), 65.41 % of the total radioactivity.
With `C[Se]c1ccccc1C(=O)NCCCCN` [M286], in data set [4] (setting [6]), the amount in urine is 0.20 % of the dose. Further, the amount in bile entry in data set [4] (pooled 0–48 h male SD rat bile) was “less than 0.1 % of the dose”.
For `O=c1c2ccccc2[se]n1-c1ccccc1` [ebselen, 2-phenyl-1,2-benzisoselenazol-3(2H)-one], the “binding rates with albumin” value in the data set with albumin is given as “high”.
